Measurements: PubChem BioAssay (NCI)
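GI50 is the concentration that inhibits growth by half. TGI is the concentration that stops growth completely.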

Columns and labels:
Assay in all cases: DTP human tumour cell line panel, 384-well format
786-0 renal = test system: 786-0 renal
A498 renal = test system: A498 renal
A549 NSCLC = test system: A549 NSCLC
ACHN renal = test system: ACHN renal
BT-549 breast = test system: BT-549 breast
CAKI-1 renal = test system: CAKI-1 renal
CCRF-CEM leukemia = test system: CCRF-CEM leukemia
COLO 205 colon = test system: COLO 205 colon
DU-145 prostate = test system: DU-145 prostate
EKVX NSCLC = test system: EKVX NSCLC
HCC-2998 colon = test system: HCC-2998 colon
HCT-116 colon = test system: HCT-116 colon
HCT-15 colon = test system: HCT-15 colon
HL-60(TB) leukemia = test system: HL-60(TB) leukemia
HOP-62 NSCLC = test system: HOP-62 NSCLC
HOP-92 NSCLC = test system: HOP-92 NSCLC
HS 578T breast = test system: HS 578T breast
HT29 colon = test system: HT29 colon
IGROV1 ovarian = test system: IGROV1 ovarian
K-562 leukemia = test system: K-562 leukemia
KM12 colon = test system: KM12 colon
LOX IMVI melanoma = test system: LOX IMVI melanoma
M14 melanoma = test system: M14 melanoma
MALME-3M melanoma = test system: MALME-3M melanoma
MCF7 breast = test system: MCF7 breast
MDA-MB-231 breast = test system: MDA-MB-231 breast
MDA-MB-435 melanoma = test system: MDA-MB-435 melanoma
MDA-MB-468 breast = test system: MDA-MB-468 breast
MOLT-4 leukemia = test system: MOLT-4 leukemia
NCI-H226 lung = test system: NCI-H226 lung
NCI-H23 lung = test system: NCI-H23 lung
NCI-H322M lung = test system: NCI-H322M lung
NCI-H460 NSCLC = test system: NCI-H460 NSCLC
NCI-H522 lung = test system: NCI-H522 lung
NCI/ADR-RES ovarian = test system: NCI/ADR-RES ovarian
OVCAR-3 ovarian = test system: OVCAR-3 ovarian
OVCAR-4 ovarian = test system: OVCAR-4 ovarian
OVCAR-5 ovarian = test system: OVCAR-5 ovarian
OVCAR-8 ovarian = test system: OVCAR-8 ovarian
PC-3 prostate = test system: PC-3 prostate
RPMI-8226 leukemia = test system: RPMI-8226 leukemia
RXF 393 renal = test system: RXF 393 renal
SF-268 CNS = test system: SF-268 CNS
SF-295 CNS = test system: SF-295 CNS
SF-539 CNS = test system: SF-539 CNS
SK-MEL-2 melanoma = test system: SK-MEL-2 melanoma
SK-MEL-28 melanoma = test system: SK-MEL-28 melanoma
SK-MEL-5 melanoma = test system: SK-MEL-5 melanoma
SK-OV-3 ovarian = test system: SK-OV-3 ovarian
SN12C renal = test system: SN12C renal
SNB-19 CNS = test system: SNB-19 CNS
SNB-75 CNS = test system: SNB-75 CNS
SW-620 colon = test system: SW-620 colon
T-47D breast = test system: T-47D breast
TK-10 renal = test system: TK-10 renal
U251 glioblastoma = test system: U251 glioblastoma
UACC-62 melanoma = test system: UACC-62 melanoma
UO-31 renal = test system: UO-31 renal

## Cn1nccc1Nc1nccc(-c2cc3c(s2)C(C)(C)N(CCN2CCOCC2)C3=O)n1
786-0 renal
  GI50: 90.9 µM
  TGI: > 100 µM
A498 renal
  GI50: 5.15 µM
  TGI: > 100 µM
A549 NSCLC
  GI50: 2.45 µM
  TGI: > 100 µM
ACHN renal
  GI50: 16.9 µM
  TGI: > 100 µM
BT-549 breast
  GI50: 13.8 µM
  TGI: > 100 µM
CAKI-1 renal
  GI50: 3.31 µM
  TGI: > 100 µM
CCRF-CEM leukemia
  GI50: 34.2 µM
  TGI: > 100 µM
COLO 205 colon
  GI50: 0.194 µM
  TGI: 5.35 µM
DU-145 prostate
  GI50: 23.6 µM
  TGI: > 100 µM
EKVX NSCLC
  GI50: > 100 µM
  TGI: > 100 µM
HCC-2998 colon
  GI50: 0.308 µM
  TGI: 17.1 µM
HCT-116 colon
  GI50: 0.404 µM
  TGI: > 100 µM
HCT-15 colon
  GI50: 23.1 µM
  TGI: > 100 µM
HL-60(TB) leukemia
  GI50: 0.264 µM
  TGI: 10.1 µM
HOP-62 NSCLC
  GI50: 8.17 µM
  TGI: > 100 µM
HOP-92 NSCLC
  GI50: 4.27 µM
  TGI: > 100 µM
HS 578T breast
  GI50: 49.4 µM
  TGI: > 100 µM
HT29 colon
  GI50: 0.618 µM
  TGI: > 100 µM
IGROV1 ovarian
  GI50: 3.52 µM
  TGI: > 100 µM
K-562 leukemia
  GI50: 4.74 µM
  TGI: > 100 µM
KM12 colon
  GI50: 1.69 µM
  TGI: > 100 µM
LOX IMVI melanoma
  GI50: 0.345 µM
  TGI: 1.55 µM
M14 melanoma
  GI50: 0.157 µM
  TGI: 0.905 µM
MALME-3M melanoma
  GI50: 0.0557 µM
  TGI: 0.296 µM
MCF7 breast
  GI50: 21.2 µM
  TGI: > 100 µM
MDA-MB-231 breast
  GI50: 3.5 µM
  TGI: > 100 µM
MDA-MB-435 melanoma
  GI50: 0.402 µM
  TGI: 50.9 µM
MDA-MB-468 breast
  GI50: 19.3 µM
  TGI: 89 µM
MOLT-4 leukemia
  GI50: 46 µM
  TGI: > 100 µM
NCI-H226 lung
  GI50: 14.2 µM
  TGI: > 100 µM
NCI-H23 lung
  GI50: 0.301 µM
  TGI: 9.1 µM
NCI-H322M lung
  GI50: 7.59 µM
  TGI: > 100 µM
NCI-H460 NSCLC
  GI50: 4.26 µM
  TGI: > 100 µM
NCI-H522 lung
  GI50: 1.65 µM
  TGI: 20.8 µM
NCI/ADR-RES ovarian
  GI50: > 100 µM
  TGI: > 100 µM
OVCAR-3 ovarian
  GI50: 51.4 µM
  TGI: > 100 µM
OVCAR-4 ovarian
  GI50: > 100 µM
  TGI: > 100 µM
OVCAR-5 ovarian
  GI50: 0.989 µM
  TGI: > 100 µM
OVCAR-8 ovarian
  GI50: 34.8 µM
  TGI: > 100 µM
PC-3 prostate
  GI50: 55.4 µM
  TGI: > 100 µM
RPMI-8226 leukemia
  GI50: 2.23 µM
  TGI: 8.87 µM
RXF 393 renal
  GI50: > 100 µM
  TGI: > 100 µM
SF-268 CNS
  GI50: 50.9 µM
  TGI: > 100 µM
SF-295 CNS
  GI50: > 100 µM
  TGI: > 100 µM
SF-539 CNS
  GI50: 28.2 µM
  TGI: > 100 µM
SK-MEL-2 melanoma
  GI50: 0.372 µM
  TGI: 1.45 µM
SK-MEL-28 melanoma
  GI50: 0.177 µM
  TGI: 0.797 µM
SK-MEL-5 melanoma
  GI50: 0.619 µM
  TGI: > 100 µM
SK-OV-3 ovarian
  GI50: 25.2 µM
  TGI: > 100 µM
SN12C renal
  GI50: 39.2 µM
  TGI: > 100 µM
SNB-19 CNS
  GI50: 64.7 µM
  TGI: > 100 µM
SNB-75 CNS
  GI50: > 100 µM
  TGI: > 100 µM
SW-620 colon
  GI50: 0.756 µM
  TGI: > 100 µM
T-47D breast
  GI50: > 100 µM
  TGI: > 100 µM
TK-10 renal
  GI50: 3.46 µM
  TGI: > 100 µM
U251 glioblastoma
  GI50: 25.9 µM
  TGI: > 100 µM
UACC-62 melanoma
  GI50: 0.138 µM
  TGI: 1.76 µM
UO-31 renal
  GI50: 9.2 µM
  TGI: > 100 µM
